# Where two headings read alike, the source gives them in different places.
# What was measured:
# HepG2 = test: SRB cytotoxicity assay, HepG2; assay type: cell-based; conditions: Homo sapiens, read-out: IC50 Cytotoxicity HepG2
# Description: (§1) The cell lines MDA-MB-231 (No. TCHu227), A549 (No. TCHu150), and HepG2 (No. TCHu72) were obtained from the Cell Bank/Stem Cell Bank, Chinese Academy of Sciences (Shanghai, China). The cell lines DLD-1 (No. CC0507) and HCT116 (No. CC0506) were obtained from the Cell Bank of Cellcook Biotech Co., Ltd. (Guangzhou, China). Cell line HL-7702 (No. BNCC338358) was obtained from Bena Culture Collection (Zhengzhou, China).
# (§2) The human cancer cell lines MDA-MB-231 (breast adenocarcinoma), DLD-1 (colorectal adenocarcinoma), A549 (lung epithelial carcinoma), HCT116 (colorectal adenocarcinoma), HepG2 (hepatocellular carcinoma), and human hepatocyte HL-7702 were cultured in Dulbecco’s modified eagle medium (DMEM, Biological Industries, Beit Haemek, Israel) containing 10% (v/v) fetal bovine serum (FBS, Biological Industries, Beit Haemek, Israel) at 37 °C in a humidified incubator (ThermoFisher, Carlsbad, CA, USA) with a 5% CO2 atmosphere.
# A549 = test: SRB cytotoxicity assay, A549; assay type: cell-based; conditions: Homo sapiens, read-out: IC50 Cytotoxicity A549
# Description: as §1, §2
# MDA-MB-231 = test: SRB cytotoxicity assay, MDA-MB-231; assay type: cell-based; conditions: Homo sapiens, read-out: IC50 Cytotoxicity MDA-MB-231
# Description: as §1, §2
# DLD-1 = test: SRB cytotoxicity assay, DLD-1; assay type: cell-based; conditions: Homo sapiens, read-out: IC50 Cytotoxicity DLD-1
# Description: as §1, §2
# HCT116 = test: SRB cytotoxicity assay, HCT116; assay type: cell-based; conditions: Homo sapiens, read-out: IC50 Cytotoxicity HCT116
# Description: as §1, §2
# [1] = SRB cytotoxicity assay, hepatocyte HL-7702; assay type: cell-based, human
# Description: as §1, §2
# DNA Topo I = target: T1, DNA Topo I (Homo sapiens, UniProt P11387); test: Topo I inhibition assay (DNA relaxation assay); assay type: biochemical; conditions: for IC50: DNA relaxation assay, pBR322, mean ± SD; for percentage inhibition on Topo I activity / inhibition at 400 µM: at 400 μM; for inhibition at 400 µM: read-out: percentage inhibition on Topo I activity
# T1 construct: purchased ThermoFisher, Waltham, MA, USA
# T1 sequence (P11387 1-765): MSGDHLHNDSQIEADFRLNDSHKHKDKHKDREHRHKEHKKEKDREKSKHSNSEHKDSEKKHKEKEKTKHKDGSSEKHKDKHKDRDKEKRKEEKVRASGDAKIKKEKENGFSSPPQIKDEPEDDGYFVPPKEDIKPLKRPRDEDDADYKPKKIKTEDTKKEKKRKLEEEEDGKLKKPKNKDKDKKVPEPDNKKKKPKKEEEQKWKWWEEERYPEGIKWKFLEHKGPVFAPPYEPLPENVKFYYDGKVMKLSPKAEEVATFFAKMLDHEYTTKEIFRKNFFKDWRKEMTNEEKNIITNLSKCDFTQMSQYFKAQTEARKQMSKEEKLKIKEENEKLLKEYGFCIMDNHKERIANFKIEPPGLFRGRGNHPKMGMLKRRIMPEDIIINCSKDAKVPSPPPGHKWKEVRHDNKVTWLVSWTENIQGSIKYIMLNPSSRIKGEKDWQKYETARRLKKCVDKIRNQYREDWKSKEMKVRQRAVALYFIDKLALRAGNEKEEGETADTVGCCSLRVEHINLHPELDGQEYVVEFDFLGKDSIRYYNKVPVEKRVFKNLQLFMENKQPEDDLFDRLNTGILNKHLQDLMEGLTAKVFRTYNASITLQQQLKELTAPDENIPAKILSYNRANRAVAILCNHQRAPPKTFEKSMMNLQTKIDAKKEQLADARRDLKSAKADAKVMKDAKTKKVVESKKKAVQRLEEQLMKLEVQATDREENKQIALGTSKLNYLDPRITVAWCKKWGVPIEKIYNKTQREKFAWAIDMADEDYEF
# Method: The DNA relaxation assay was adopted to investigate the compounds’ inhibitory activities on Topo I. Different concentrations of the compounds, dissolved and diluted in DMSO, were added into the relaxation buffer (50 mM Tris, pH 7.5, 50 mM KCl, 10 mM MgCl2, 0.1 mM EDTA, 0.5 Mm dithiothreitol, and 0.05 mg/mL bovine serum albumin) containing 0.2 U Topo I (ThermoFisher, Waltham, MA, USA) and incubated at room temperature for 10 min. After that, 500 ng supercoiled pBR322 plasmid DNA (ThermoFisher, Waltham, MA, USA) was added and then incubated at 37 °C for another 30 min. Finally, the reactions were stopped with a stopping solution (5% sodium dodecyl sulfate, 0.0025% bromophenol blue, and 25% glycerol), and the mixtures were applied onto 0.8% agarose gel and subjected to electrophoresis for 1.5 h in Tris-Acetate-EDTA buffer. After being stained with GelRed (Biotium, Fremont, CA, USA), the gel was imagined with the imaging system (Biotop, Shanghai, China). […] The band density of the supercoiled DNA was quantified by the ImageJ software (version 1.53a, National Institutes of Health, Bethesda, MD, USA), and the inhibition activity is expressed as the percentage inhibition and calculated by formula: Inhibition % = [(A − B)/(C − B)] × 100%, where A is the band density of the tested samples, B is the band density of the negative control, and C is the band density of the blank control.
# [2] = HepG2, SRB assay, 48 h, mean ± SD
# [3] = A549, SRB assay, 48 h, mean ± SD
# [4] = MDA-MB-231, SRB assay, 48 h, mean ± SD
# [5] = DLD-1, SRB assay, 48 h, mean ± SD
# [6] = HCT-116, SRB assay, 48 h, mean ± SD
# [7] = HL-7702 hepatocyte cell line, SRB assay, 48 h, human hepatocyte, mean ± SD, read-out: IC50 Cytotoxicity HL-7702
SMILES,IC50 (DNA Topo I) [µM],percentage inhibition on Topo I activity (DNA Topo I),inhibition at 400 µM (DNA Topo I) [%],IC50 (HepG2; [2]) [µM],IC50 (A549; [3]) [µM],IC50 (MDA-MB-231; [4]) [µM],IC50 (DLD-1; [5]) [µM],IC50 (HCT116; [6]) [µM],"IC50 at 48 h [1, 7] [µM]","IC50 (HepG2; HepG2, 48 h) [µM]","IC50 (A549; A549, 48 h) [µM]","IC50 (MDA-MB-231; MDA-MB-231, 48 h) [µM]","IC50 (DLD-1; DLD-1, 48 h) [µM]","IC50 (HCT116; HCT-116, 48 h) [µM]",IC50 at 48 h ([1]; human) [µM]
"CC[C@@]1(O)C(=O)OCc2c1cc1n(c2=O)Cc2cc3ccccc3nc2-1 [CPT, Camptothecin, reference compound]",–,–,–,1.71 ± 0.47,4.41 ± 1.11,20.4 ± 3.7,17 ± 3.82,12.1 ± 5.74,2.11,–,–,–,–,–,–
"COc1ccc(/C=C/C(=O)c2ccc(O[C@@H]3O[C@H](CO)[C@@H](O)[C@H](O)[C@H]3O)c(O[C@@H]3O[C@H](CO)[C@@H](O)[C@H](O)[C@H]3O)c2O)cc1O [Compound 1, 4-O-methylokanin 3′,4′-di-O-β-D-glucopyranoside]",394 ± 39,–,–,> 200,> 200,> 200,> 200,> 200,> 200,–,–,–,–,–,–
COc1ccc(/C=C/C(=O)c2ccc(O)c(O[C@@H]3O[C@H](CO)[C@@H](O)[C@H](O)[C@H]3O)c2O)cc1O [Compound 2],329 ± 58.8,–,–,> 200,> 200,> 200,> 200,> 200,> 200,–,–,–,–,–,–
COc1ccc(-c2oc3c(O)c(OC)c(O[C@@H]4O[C@H](CO)[C@@H](O)[C@H](O)[C@H]4O)cc3c(=O)c2OC)cc1O [Compound 9],> 400,no inhibition,–,> 200,135 ± 32.3,> 200,50.5 ± 0.31,87.7 ± 15.3,126 ± 7.08,–,–,–,–,–,–
COc1cc(OC)cc(-c2oc3cc(O[C@@H]4O[C@H](CO)[C@@H](O)[C@H](O)[C@H]4O)cc(O)c3c(=O)c2O)c1 [Compound 10],> 400,no inhibition,–,> 200,> 200,> 200,63 ± 4.08,59.3 ± 4.56,114.8 ± 0.55,–,–,–,–,–,–
COc1ccc(-c2oc3cc(O[C@@H]4O[C@H](CO)[C@@H](O)[C@H](O)[C@H]4O)c(OC)c(O)c3c(=O)c2OC)cc1O [Compound 14],> 400,no inhibition,–,> 200,> 200,> 200,> 200,> 200,> 200,–,–,–,–,–,–
COc1ccc([C@@H]2CC(=O)c3ccc(O)c(O[C@@H]4O[C@H](CO)[C@@H](O)[C@H](O)[C@H]4O)c3O2)cc1O [Compound 16],> 400,–,10.9,> 200,> 200,> 200,> 200,> 200,> 200,–,–,–,–,–,–
COc1ccc([C@@H]2CC(=O)c3c(O)cc(O[C@@H]4O[C@H](CO)[C@@H](O)[C@H](O)[C@H]4O)cc3O2)cc1O [Compound 17],> 400,no inhibition,–,> 200,> 200,> 200,> 200,> 200,> 200,–,–,–,–,–,–

# The next lines start with results.
IC50 (DNA Topo I) [µM],percentage inhibition on Topo I activity (DNA Topo I),inhibition at 400 µM (DNA Topo I) [%],SMILES,IC50 (HepG2; [2]) [µM],IC50 (A549; [3]) [µM],IC50 (MDA-MB-231; [4]) [µM],IC50 (DLD-1; [5]) [µM],IC50 (HCT116; [6]) [µM],"IC50 at 48 h [1, 7] [µM]","IC50 (HepG2; HepG2, 48 h) [µM]","IC50 (A549; A549, 48 h) [µM]","IC50 (MDA-MB-231; MDA-MB-231, 48 h) [µM]","IC50 (DLD-1; DLD-1, 48 h) [µM]","IC50 (HCT116; HCT-116, 48 h) [µM]",IC50 at 48 h ([1]; human) [µM]
> 400,no inhibition,–,COc1cc(O)c2c(=O)c(OC)c(-c3ccc(O)c(O)c3)oc2c1 [Compound 4],3.05 ± 1.31,8.16 ± 4.04,> 200,7.14 ± 0.35,4.52 ± 0.04,19.6 ± 0.62,–,–,–,–,–,–
190 ± 22.1,–,–,COc1cc(-c2oc3cc(O)c(OC)c(O)c3c(=O)c2O)ccc1O [Compound 8],> 200,178 ± 4.38,> 200,187 ± 48.6,> 200,> 200,–,–,–,–,–,–
> 400,–,26.4,COc1c(O[C@@H]2O[C@H](CO)[C@@H](O)[C@H](O)[C@H]2O)cc2oc(-c3ccc(O)c(O)c3)c(OC)c(=O)c2c1O [Compound 12],> 200,> 200,> 200,> 200,> 200,> 200,–,–,–,–,–,–
89.9 ± 28.1,–,–,"O=c1cc(-c2ccc(O)c(O)c2)oc2cc(O)cc(O)c12 [Compound 15, luteolin]",–,–,–,–,–,–,175 ± 16.6,93.9 ± 2.92,94.91 ± 0.5,69.2 ± 4.04,31.7 ± 1.54,> 200
